This assay has as its system human dermal papilla cells. Nature of the assay: Promotion of proliferation of human dermal papilla cells (CellTiter-Glo Luminescent cell viability assay). Type of assay: cell-based. The settings on record: human dermal papilla cells (ScienCell, 2499); drug 0 to 30 μM; 48 hours; CellTiter-Glo luminescence; compared to DMSO-treated control group. The method, then: The effect of promoting cell proliferation by the drug was analyzed using human dermal papilla cells (ScienCell, 2499). Human dermal papilla cells cultured using Mesenchymal Stem Cell Medium (ScienCell, 7501) medium were seeded at a density of 3×10^3 cells/well and in a volume of 100 μl in a 96-well plate, incubated overnight at 37° C. and 5% CO2, treated with the drug at different concentrations ranging from 0 to 30 μM in a volume of 100 μL, and incubated at 37° C. and 5% CO2 for 48 hours. CellTiter-Glo Luminescent cell viability assay was performed according to the manufacturer's protocol (Promega, G7573) to detect cell proliferation. Luminescence was measured using an Envision 2102 multilabeled reader (PerkinElmer) equipment, and the cell proliferation rate was analyzed by the activity of the drug-treated group compared to the DMSO-treated group (control group), which is a solvent of the drug.
In general terms: ATP-based viability assays read luminescence as a measure of living cells.

On to `O=C(Nc1n[nH]c2nc(Nc3cccc4c3CCC4)c(F)cc12)c1ccncc1` [Compound 91, N-(6-((2,3-dihydro-1H-inden-4-yl)amino)-5-fluoro-1H-pyrazolo[3,4-b]pyridin-3-yl)isonicotinamide], for which the “Maximum DP cell proliferation (%)” value was determined as 6.4%.
In the case of `Cc1c(Nc2nc3[nH]nc(N)c3cc2F)cccc1N(C)C` [Compound 33, N6-(3-(dimethylamino)-2-methylphenyl)-5-fluoro-1H-pyrazolo[3,4-b]pyridine-3,6-diamine], the “Maximum DP cell proliferation (%)” value stood at 6.3%.
The result for `Nc1n[nH]c2nc(Nc3cccc(C(F)(F)F)c3Cl)c(F)cc12` [Compound 77, N6-(2-chloro-3-(trifluoromethyl)phenyl)-5-fluoro-1H-pyrazolo[3,4-b]pyridine-3,6-diamine] reads 15%; that for `Fc1cc2c(-c3ccccc3)n[nH]c2nc1Nc1cccc2c1CCC2` [Example 109, 5-fluoro-N-indan-4-yl-3-phenyl-1H-pyrazolo[3,4-b]pyridin-6-amine], 3.6%; that for `Cc1c(F)cccc1Nc1nc2[nH]nc(N)c2cc1F` [Compound 82, 5-fluoro-N6-(3-fluoro-2-methylphenyl)-1H-pyrazolo[3,4-b]pyridine-3,6-diamine], 14%.
The result for `Nc1n[nH]c2nc(Nc3cccc4occc34)c(F)cc12` [Compound 10, N6-(benzofuran-4-yl)-5-fluoro-1H-pyrazolo[3,4-b]pyridine-3,6-diamine] reads 13%; that for `Nc1n[nH]c2nc(Nc3ccc(Cl)c(C(F)F)c3)c(F)cc12` [Compound 75, N6-(4-chloro-3-(difluoromethyl)phenyl)-5-fluoro-1H-pyrazolo[3,4-b]pyridine-3,6-diamine], 3%; that for `Nc1n[nH]c2nc(Nc3cccc(C(F)(F)F)c3F)ccc12` [Compound 65, N6-[2-fluoro-3-(trifluoromethyl)phenyl]-1H-pyrazolo[3,4-b]pyridine-3,6-diamine], 10%.
Take `Nc1n[nH]c2nc(Nc3cccc4c3CCC4)c(-c3ccccc3)cc12` [Compound 23, N6-(2,3-dihydro-1H-inden-4-yl)-5-phenyl-1H-pyrazolo[3,4-b]pyridine-3,6-diamine]: the “Maximum DP cell proliferation (%)” value is 5%.
As to `CCCc1cc2c(N)n[nH]c2nc1Nc1cccc2c1CCC2` [Compound 21, N6-(2,3-dihydro-1H-inden-4-yl)-5-propyl-1H-pyrazolo[3,4-b]pyridine-3,6-diamine], the “Maximum DP cell proliferation (%)” value is on record as 3%.
The figure for `Nc1n[nH]c2nc(Nc3cccc4c3CCCC4)ccc12` [Compound 38, N6-(5,6,7,8-tetrahydronaphthalen-1-yl)-1H-pyrazolo[3,4-b]pyridine-3,6-diamine] is 2.2%; for `CC1(C)CCc2c(Nc3nc4[nH]nc(N)c4cc3F)cccc21` [Compound 51, N6-(1,1-dimethyl-2,3-dihydro-1H-inden-4-yl)-5-fluoro-1H-pyrazolo[3,4-b]pyridine-3,6-diamine] it is 8.7%.
`Nc1n[nH]c2nc(Nc3cc(F)cc(C(F)(F)F)c3F)c(F)cc12` [Compound 73, N6-[2,5-difluoro-3-(trifluoromethyl)phenyl]-5-fluoro-1H-pyrazolo[3,4-b]pyridine-3,6-diamine]: the “Maximum DP cell proliferation (%)” value stood at 14%.
For the molecule `CS(=O)(=O)Nc1n[nH]c2nc(Nc3cccc4c3CCC4)c(F)cc12` [Example 106, N-(6-((2,3-dihydro-1H-inden-4-yl)amino)-5-fluoro-1H-pyrazolo[3,4-b]pyridin-3-yl)methanesulfonamide], the “Maximum DP cell proliferation (%)” value came to 4.8%.
In the case of `Nc1n[nH]c2nc(Nc3cccc4c3CCC4)c(F)cc12` [Compound 3, N6-(2,3-dihydro-1H-inden-4-yl)-5-fluoro-1H-pyrazolo[3,4-b]pyridine-3,6-diamine], the “Maximum DP cell proliferation (%)” value amounted to 23%.
For `Nc1n[nH]c2nc(Nc3cccc4ccccc34)c(F)cc12` [Compound 24, 5-fluoro-N6-(naphthalen-1-yl)-1H-pyrazolo[3,4-b]pyridine-3,6-diamine], the “Maximum DP cell proliferation (%)” value was determined as 8%.
Consider `CN(C)CCn1nc(N)c2cc(F)c(Nc3cccc4c3CCC4)nc21` [Compound 96, N6-(2,3-dihydro-1H-inden-4-yl)-1-(2-(dimethylamino)ethyl)-5-fluoro-1H-pyrazolo[3,4-b]pyridine-3,6-diamine], for which the “Maximum DP cell proliferation (%)” value is recorded as 1.2%.
The figure for `Cc1c(Nc2cccc3c2CCC3)nc2[nH]nc(N)c2c1C` [Compound 58, N6-(2,3-dihydro-1H-inden-4-yl)-4,5-dimethyl-1H-pyrazolo[3,4-b]pyridine-3,6-diamine] is 13%.
The result for `Nc1n[nH]c2nc(Nc3cc(C(F)(F)F)ccc3F)c(F)cc12` [Compound 68, 5-fluoro-N6-(2-fluoro-5-(trifluoromethyl)phenyl)-1H-pyrazolo[3,4-b]pyridine-3,6-diamine] reads 4.5%.
Take `Cn1ccc2c(Nc3nc4[nH]nc(N)c4cc3F)cccc21` [Compound 6, 5-fluoro-N6-(1-methyl-1H-indol-4-yl)-1H-pyrazolo[3,4-b]pyridine-3,6-diamine]: the “Maximum DP cell proliferation (%)” value was found to be 7%.
The figure for `Nc1n[nH]c2nc(Nc3cccc4c3CCC4)c(Cl)c(Cl)c12` [Compound 42, 4,5-dichloro-N6-indan-4-yl-1H-pyrazolo[3,4-b]pyridine-3,6-diamine] is 16%; for `O/N=N\c1n[nH]c2nc(Nc3cccc4c3CCC4)c(F)cc12` [Example 122, (Z)-N-(2,3-dihydro-1H-inden-4-yl)-5-fluoro-3-(hydroxydiazenyl)-1H-pyrazolo[3,4-b]pyridin-6-amine] it is 5.3%; for `Nc1n[nH]c2nc(Nc3ccc(C(F)(F)F)c(F)c3)c(F)cc12` [Compound 72, 5-fluoro-N6-[3-fluoro-4-(trifluoromethyl)phenyl]-1H-pyrazolo[3,4-b]pyridine-3,6-diamine] it is 6.8%.
The figure for `Nc1n[nH]c2nc(Nc3cccc(C(F)(F)F)c3F)cnc12` [Compound 66, N6-[2-fluoro-3-(trifluoromethyl)phenyl]-1H-pyrazolo[3,4-b]pyrazine-3,6-diamine] is 25%.
`Nc1nn(CC(=O)c2ccccc2)c2nc(Nc3cccc4c3CCC4)c(F)cc12` [Compound 100, 2-(3-amino-6-((2,3-dihydro-1H-inden-4-yl)amino)-5-fluoro-1H-pyrazolo[3,4-b]pyridin-1-yl)-1-phenylethan-1-one]: the “Maximum DP cell proliferation (%)” value turned out to be 0.8%.
For the molecule `Nc1n[nH]c2nc(Nc3cccc4c3CCCC4)c(F)cc12` [Compound 19, 5-fluoro-N6-(5,6,7,8-tetrahydronaphthalen-1-yl)-1H-pyrazolo[3,4-b]pyridine-3,6-diamine], the “Maximum DP cell proliferation (%)” value is listed as 9%.
For `Nc1n[nH]c2nc(CNc3cccc4c3CCC4)c(F)cc12` [Compound 34, 5-fluoro-6-[(indan-4-ylamino)methyl]-1H-pyrazolo[3,4-b]pyridin-3-amine], the “Maximum DP cell proliferation (%)” value is 6.8%.
The result for `Nc1n[nH]c2nc(Nc3cccc4c3CCC4)ncc12` [Example 112, N6-(2,3-dihydro-1H-inden-4-yl)-1H-pyrazolo[3,4-d]pyrimidine-3,6-diamine] reads 2%; that for `Cc1nc(Nc2cccc3c2CCC3)nc2[nH]nc(N)c12` [Compound 84, N6-(2,3-dihydro-1H-inden-4-yl)-4-methyl-1H-pyrazolo[3,4-d]pyrimidine-3,6-diamine], 7.4%.
The figure for `Nc1n[nH]c2nc(Nc3cccc4c3CCC4)cnc12` [Compound 15, N6-(2,3-dihydro-1H-inden-4-yl)-1H-pyrazolo[3,4-b]pyrazine-3,6-diamine] is 24%; for `Cc1cccc(Nc2nc3[nH]nc(N)c3cc2F)c1C` [Compound 12, N6-(2,3-dimethylphenyl)-5-fluoro-1H-pyrazolo[3,4-b]pyridine-3,6-diamine] it is 5.4%; for `Nc1n[nH]c2nc(Nc3cccc4ccccc34)ccc12` [Compound 35, N6-(naphthalen-1-yl)-1H-pyrazolo[3,4-b]pyridine-3,6-diamine] it is 1.2%.
The result for `Nc1n[nH]c2nc(Nc3cccc(Cl)c3Cl)c(F)cc12` [Compound 59, N6-(2,3-dichlorophenyl)-5-fluoro-1H-pyrazolo[3,4-b]pyridine-3,6-diamine] reads 15%; that for `CN(C)c1n[nH]c2nc(Nc3cccc4c3CCC4)c(F)cc12` [Example 105, N6-(2,3-dihydro-1H-inden-4-yl)-5-fluoro-N3,N3-dimethyl-1H-pyrazolo[3,4-b]pyridine-3,6-diamine], 12%; that for `Cc1c(Cl)cccc1Nc1nc2[nH]nc(N)c2cc1F` [Compound 67, N6-(3-chloro-2-methylphenyl)-5-fluoro-1H-pyrazolo[3,4-b]pyridine-3,6-diamine], 13%.
`Nc1n[nH]c2nc(Nc3cccc4c3CCC4(F)F)c(F)cc12` [Compound 85, N6-(1,1-difluoro-2,3-dihydro-1H-inden-4-yl)-5-fluoro-1H-pyrazolo[3,4-b]pyridine-3,6-diamine]: the “Maximum DP cell proliferation (%)” value is reported as 15%.
The result for `Nc1n[nH]c2nc(Nc3cc(O)cc4c3CCC4)c(F)cc12` [Compound 56, 7-[(3-amino-5-fluoro-1H-pyrazolo[3,4-b]pyridin-6-yl)amino]indan-5-ol] reads 7.3%.
